The subject of series [1] is INS-1 cells. Nature of the series: Insulin secretion assay in INS-1 cells (glucose at 4.2 mM). As to conditions: 1 h incubation; for activity at 10 µM: Rattus norvegicus, INS1, glucose 4.2 mM, compound 10 μm, read-out: Insulin secretion, % of ctrl at 10 μm of cpd; for Insulin secretion, % of ctrl at 50 μm of cpd: glucose 4.2 mM, compound 50 μm. In kind it is cell-based, rat. As for the experimental part:
INS-1 cells were cultured in complete medium, RPMI1640 containing 1 mM sodium pyruvate, 50 μM 2-mercaptoethanol, 2 mM glutamine, 10 mM HEPES, 100 IU/mL penicillin, and 100 μg/mL streptomycin (CM), supplemented with 10 mM glucose, and 10% (vol/vol) heat-inactivated fetal […] (FCS), as described by Asfari et al. (Endocrinology 130: 167-178, 1992).
INS-1 cells were plated and cultured in 48-well plates. After 2 days of culture, the medium was removed and cells were cultured for 24 h with a medium change to 5 mM glucose, 1% FCS. The cells were then washed with Krebs-Ringer Bicarbonate HEPES buffer (KRBH; 135 mM NaCl; 3.6 mM KCl; 5 mM NaHCO3; 0.5 mM NaH2PO4; 0.5 mM MgCl2; 1.5 mM CaCl2 and 10 mM HEPES; pH 7.4) 0.1% BSA containing 2.8 mM glucose and preincubated for 30 min at 37° C. in the same buffer. The cells were then washed twice and incubated for 1 h in KRBH 0.1% BSA containing 4.2 mM glucose and different concentrations of the tested molecule. Insulin concentration in the collected supernatants was measured with ELISA using rat insulin antibody (Insulin Rat Elit PLUS, cat, ref 10-1145-01).
Insulin secretion results are expressed in % of control (glucose 4.2 mM).

Series [2] has as its system diabetic N0STZ rat islets. Nature of the series: Insulin secretion in diabetic N0STZ rat islets. As to conditions: 90 min, Means±SEM. In kind it is cell-based. On the procedure:
14±3 weeks non-fasted N0STZ (PORTHA et al., 1974) male rats (Charles Rivers-Domaine des Oncins, I'Arbresle, France) were anesthetized with sodium pentobarbital (Nembutal®: 45 mg/kg in 5 ml/kg administered intra peritoneally) and body temperature was maintained with a heat lamp.
Rat pancreatic islets of Langerhans were isolated from the pancreas of 8 rats by collagenase P (Boehringer, Meylan, France) digestion. Islets were purified by sedimentation in Hanks balanced salt solution [NaCl (137 mM); KCl (5.36 mM); MgSO4, 7 H2O (0.81 mM); Na2HPO4, 12 H2O (0.34 mM); KH2PO4 (0.44 mM); CaCl2, 2 H2O (1.26 mM); NaHCO3 (4.17 mM)] followed by Ficoll gradient separation. Islets were then hand-picked under stereoscopic microscope and batches of 3 islets were incubated for 90 minutes at 37° C. with continuous shaking under a humidified condition ([…], 5% CO2) in 1 ml of Krebs/Hepes pH 7 solution [NaCl (115 mM), NaHCO3 (24 mM), KCl (5 mM), MgCl2 (1 mM), CaCl2, 2 H2O (1 mM), 0.2% of Bovine serum albumin (Fraction V, fatty acid free, Boehringer, Mannheim), 10 mM Hepes] containing the required glucose or compound concentration. Compounds were dissolved in DMSO at 2.10-2M stock solutions. They were then diluted at the required concentration in Krebs/Hepes buffer containing the required glucose concentration.
At the end of incubation, media was collected and insulin levels were measured using ELISA (EUROBIO, Courtaboeuf, France).
Islets were hand-picked and incubated in the presence of increasing concentrations of compounds in the presence of glucose at 2.8 or 8 mM. At the end of incubation, media was collected and insulin levels were measured using ELISA method. Results are expressed as % of glucose control (2.8 or 8 mM) and represent Means±SEM.

[3] abbreviates: glucose 2.8 mM, compound 10−4 M.

On to `O=c1c(-c2ccc(Cl)cc2)nc2cccnc2n1CC1CC1` [Example 3, 2-(4-chlorophenyl)-4-cyclopropylmethylpyrido[2,3-b]pyrazin-3(4H)-one], for which the activity at 10 µM in series [1] turned out to be 241%. Moreover, in series [1], the “Insulin secretion, % of ctrl at 50 μm of cpd” value (“Insulin secretion, % of ctrl” for short) was 398 % of ctrl. Also, the “Insulin secretion, % of glucose control” value in series [2] (setting [3]) is recorded as 85 ± 8 % of glucose control; in series [2] (glucose 8 mM, compound 10−4 M), 168 ± 7 % of glucose control; in series [2] (glucose 8 mM, compound 10−5 M), 145 ± 9 % of glucose control; in series [2] (glucose 8 mM, compound 10−6 M), 110 ± 7 % of glucose control; in series [2] (glucose 8 mM, compound 10−7 M) it was 100 ± 7 % of glucose control.

With `O=c1c(-c2ccc(Cl)cc2)nc2cccnc2n1C1CC1` [Example 3-5, 2-(4-chlorophenyl)-4-cyclopropylpyrido[2,3-b]pyrazin-3(4H)-one], in series [1], the activity at 10 µM turned out to be 418% and the “Insulin secretion, % of ctrl” value is on record as 610 % of ctrl.

As to `CCn1c(=O)c(-c2ccc(F)cc2)nc2cccnc21` [Example 3-3, 2-(4-fluorophenyl)-4-ethylpyrido[2,3-b]pyrazin-3(4H)-one], in series [1], the activity at 10 µM is 235% and the “Insulin secretion, % of ctrl” value is recorded as 251 % of ctrl.

`CC(C)n1c(=O)c(-c2ccc(Cl)cc2)nc2cccnc21` [Example 3-18, 2-(4-chlorophenyl)-4-isopropyl-pyrido[2,3-b]pyrazin-3(4H)-one]: the activity at 10 µM in series [1] is 338%.

On to `CCn1c(=O)c(-c2ccc(Cl)cc2)nc2cccnc21` [Example 3-2, 2-(4-chlorophenyl)-4-ethylpyrido[2,3-b]pyrazin-3(4H)-one], for which, in series [1], the activity at 10 µM was found to be 240% and the “Insulin secretion, % of ctrl” value is on record as 263 % of ctrl.

With `CCn1c(=O)c(-c2ccccc2)nc2cccnc21` [Example 3-4, 4-ethyl-2-phenylpyrido[2,3-b]pyrazin-3(4H)-one], in series [1], the activity at 10 µM came out at 226% and the “Insulin secretion, % of ctrl” value is 302 % of ctrl.

For orientation: melting point means the temperature, or range, at which the solid turns liquid. `Cc1cc(F)ccc1-c1nc2cccnc2n(C2CC2)c1=O` [Example 6-2, 4-cyclopropyl-2-(4-fluoro-2-methylphenyl)pyrido[2,3-b]pyrazin-3(4H)-one] showed a melting point of 165 to 167 °C.

Turning to `O=c1c(-c2ccc(Cl)cc2)nc2cccnc2n1CC(F)F` [Example 3-8, 2-(4-chlorophenyl)-4-(2,2-difluoroethyl)pyrido[2,3-b]pyrazin-3(4H)-one], the activity at 10 µM in series [1] turned out to be 273%.

Take `O=c1c(-c2ccc(F)cc2)nc2cccnc2n1C1CC1` [Example 3-6, 4-cyclopropyl-2-(4-fluorophenyl)pyrido[2,3-b]pyrazin-3(4H)-one]: in series [1], the activity at 10 µM stood at 231% and the “Insulin secretion, % of ctrl” value is on record as 255 % of ctrl.

`Cc1ccnc2c1nc(-c1ccc(Cl)cc1)c(=O)n2C1CC1` [Example 3-13, 2-(4-chlorophenyl)-4-cyclopropyl-8-methylpyrido[2,3-b]pyrazin-3(4H)-one] came in with a melting point of 159 to 163 °C.

For `O=c1c(-c2ccc(F)cc2)nc2cccnc2n1CC1CC1` [Example 3-7, 4-cyclopropylmethyl-2-(4-fluorophenyl)pyrido[2,3-b]pyrazin-3(4H)-one], the activity at 10 µM in series [1] stood at 208%. Further, in series [1], the “Insulin secretion, % of ctrl” value was 221 % of ctrl. Besides, the “Insulin secretion, % of glucose control” value is on record as 84 ± 10 % of glucose control in series [2] (setting [3]); 228 ± 12 % of glucose control in series [2] (glucose 8 mM, compound 10−4 M); 210 ± 9 % of glucose control in series [2] (glucose 8 mM, compound 10−5 M); 149 ± 9 % of glucose control in series [2] (glucose 8 mM, compound 10−6 M); 124 ± 7 % of glucose control in series [2] (glucose 8 mM, compound 10−7 M).

Take `COCCn1c(=O)c(-c2ccc(F)cc2)nc2cccnc21` [Example 3-16, 2-(4-fluorophenyl)-4-(2-methoxyethyl)pyrido[2,3-b]pyrazin-3(4H)-one]: the melting point was 124 to 127 °C. Besides, the activity at 10 µM in series [1] was determined as 254%.
